# Experimental data reported in US20040162297A1, “Adenosine derivative in polymorph I form” (priority 2001, published 2004).
# Test: stability of the polymorphic form at ambient temperatures
# Format: physicochemical
structure (smiles),measurement,value
"CC(C)(C)c1nnc([C@H]2O[C@@H](n3cnc4c(Nc5ccc(Cl)cc5F)ncnc43)[C@H](O)[C@@H]2O)o1 [Polymorph I, (2S,3S,4R,5R)-2-(5-tert-butyl-[1,3,4]-oxadiazol-2-yl)-5-[6-(4-chloro-2-fluorophenylamino)-9H-purin-9-yl]-tetrahydrofuran-3,4-diol]",stability at ambient temperatures,particular stability
